Measured values published in the NIST ThermoML archive (doi:10.1021/acs.jced.8b00939).
Numbers after ± are expanded uncertainties.

How the values were obtained:
[1] = 298.15 K, 100 kPa, Liquid; for viscosity: Falling or rolling sphere viscometry; for mass density: Vibrating tube method
[2] = xn = mol fraction of the nth substance listed; settings: 298.2 K, 100 kPa, Liquid, x1 = 0.0843
[3] = wn = mass fraction of the nth substance listed; settings: 298.2 K, 100 kPa, Liquid; for viscosity: Falling or rolling sphere viscometry; for mass density: Vibrating tube method

With `C=CC(C)(CCC=C(C)C)OC(C)=O` (stereo not drawn) [linalool acetate] as the compound, how does the viscosity [1] read?
The viscosity was 2.3 ± 0.03 mPa·s.

And the mass density [1]?
The mass density was 898.6 ± 1.8 kg/m3.

With `C/C1=C\CC/C(C)=C/CC(C)(C)/C=C/C1` [(E,E,E)-2,6,6,9-tetramethyl-1,4,8-cycloundecatriene] + C=C1CC/C=C(\C)CC[C@@H]2[C@@H]1CC2(C)C as the compound, how does the viscosity ([2]; Falling or rolling sphere viscometry) read?
Its viscosity is 5.87 ± 0.07 mPa·s.

And the mass density ([2]; Vibrating tube method)?
The mass density was 897.1 ± 1.8 kg/m3.

For `O` [water], which viscosity [1] is on record?
Its viscosity is 0.89 ± 0.01 mPa·s.

For `CCO` [ethanol], which viscosity [1] is on record?
Its viscosity is 1.13 ± 0.01 mPa·s.

What about the mass density [1] of the same compound?
The mass density was 785.1 ± 1.6 kg/m3.

Which viscosity ([3]; w2 = 0.061) does the source give for `CCO` [ethanol] + O here?
The viscosity was 1.31 ± 0.02 mPa·s.

What about the viscosity ([3]; w2 = 0.124) of the same compound?
Its viscosity is 1.46 ± 0.02 mPa·s.

What about the viscosity ([3]; w2 = 0.172) of the same compound?
The viscosity was 1.64 ± 0.04 mPa·s.

What about the viscosity ([3]; w2 = 0.233) of the same compound?
Its viscosity is 1.8 ± 0.03 mPa·s.

What about the viscosity ([3]; w2 = 0.276) of the same compound?
Its viscosity is 1.87 ± 0.02 mPa·s.

And the viscosity ([3]; w2 = 0.34)?
Its viscosity is 1.9 ± 0.1 mPa·s.

And the viscosity ([3]; w2 = 0.41)?
The viscosity was 2.19 ± 0.15 mPa·s.

And the viscosity ([3]; w2 = 0.5)?
The viscosity was 2.31 ± 0.03 mPa·s.

What about the viscosity ([3]; w2 = 0.62) of the same compound?
Its viscosity is 2.34 ± 0.02 mPa·s.

What about the mass density ([3]; w2 = 0.061) of the same compound?
The mass density was 802.5 ± 1.9 kg/m3.

What about the mass density ([3]; w2 = 0.124) of the same compound?
The mass density was 819.5 ± 2 kg/m3.

What about the mass density ([3]; w2 = 0.172) of the same compound?
The mass density was 833.4 ± 3.1 kg/m3.

And the mass density ([3]; w2 = 0.233)?
Its mass density is 848.2 ± 3.3 kg/m3.

What about the mass density ([3]; w2 = 0.276) of the same compound?
Its mass density is 857.9 ± 2.6 kg/m3.

What about the mass density ([3]; w2 = 0.34) of the same compound?
The mass density was 861.8 ± 9 kg/m3.

What about the mass density ([3]; w2 = 0.41) of the same compound?
The mass density was 887.3 ± 18 kg/m3.

And the mass density ([3]; w2 = 0.5)?
The mass density was 908.8 ± 4.9 kg/m3.

And the mass density ([3]; w2 = 0.62)?
Its mass density is 935.2 ± 9 kg/m3.

Which viscosity [1] does the source give for `C=CCc1ccc(O)c(OC)c1` [2-hydroxy-5-allylanisole] here?
The viscosity was 6.98 ± 0.08 mPa·s.

What about the mass density [1] of the same compound?
Its mass density is 1062 ± 2 kg/m3.

Which viscosity [1] does the source give for `C=CC(C)(O)CCC=C(C)C` (stereo not drawn) [3,7-dimethyl-1,6-octadien-3-ol] here?
The viscosity was 4.35 ± 0.05 mPa·s.

What about the mass density [1] of the same compound?
The mass density was 857.3 ± 1.7 kg/m3.

Which results are given for `C=CCc1ccc(OC)c(OC)c1` [methyleugenol]?
viscosity [1]: 4.23 ± 0.04 mPa·s; mass density [1]: 1031 ± 2 kg/m3

For `C=C(C)[C@H]1CC=C(C)CC1` [(R)-1-methyl-4-(1-methylethenyl)cyclohexene], which viscosity [1] is on record?
Its viscosity is 0.87 ± 0.01 mPa·s.

And the mass density [1]?
Its mass density is 839.1 ± 1.7 kg/m3.
